In patent publication EP1007530B1, “6-O-SUBSTITUTED ERYTHROMYCIN COMPOUNDS AND METHOD FOR MAKING SAME” (ABBOTT LABORATORIES, priority 1996, dated 1997):
Values after ≈ are worked out from the molar mass of the structure shown.

How the values were obtained:
Experiment in all cases: In vitro assay of antibacterial activity (agar dilution MIC)
Format in all cases: cell-based
[1] = system: Enterococcus faecium ATCC 8043; details: BHI agar, 35-37 °C, 20 to 24 hours, unit assumed
Experimental: (§1) Representative compounds of the present invention were assayed in vitro for antibacterial activity as follows: Twelve petri dishes containing successive aqueous dilutions of the test compound mixed with 10 mL of sterilized Brain Heart Infusion (BHI) agar (Difco 0418-01-5) were prepared. Each plate was inoculated with 1:100 (or 1:10 for slow-growing strains, such as Micrococcus and Streptococcus) dilutions of up to 32 different microorganisms, using a Steers replicator block. The inoculated plates were incubated at 35-37 °C for 20 to 24 hours, In addition, a control plate, using BHI agar containing no test compound, was prepared and incubated at the beginning and end of each test.
(§2) An additional plate containing a compound having known susceptibility patterns for the organisms being tested and belonging to the same antibiotic class as the test compound was also prepared and incubated as a further control, as well as to provide test-to-test comparability. Erythromycin A was used for this purpose.
(§3) After incubation, each plate was visually inspected. The minimum inhibitory concentration (MIC) was defined as the lowest concentration of drug yielding no growth, a slight haze, or sparsely isolated colonies on the inoculum spot as compared to the growth control. […]

[2] = system: Micrococcus luteus ATCC 9341; details: BHI agar, 35-37 °C, 20 to 24 hours, unit assumed
Experimental: as §1, §2, §3

[3] = system: Staphylococcus aureus 1775; details: BHI agar, 35-37 °C, 20 to 24 hours, unit assumed
Experimental: as §1, §2, §3

Candida albicans CCH 442 = details: BHI agar, 35-37 °C, 20 to 24 hours, unit assumed
Experimental: as §1, §2, §3

Escherichia coli SS = details: BHI agar, 35-37 °C, 20 to 24 hours, unit assumed
Experimental: as §1, §2, §3

[4] = system: Enterobacter aerogenes ATCC 13048; details: BHI agar, 35-37 °C, 20 to 24 hours, unit assumed
Experimental: as §1, §2, §3

[5] = system: Streptococcus pyogenes 930; details: BHI agar, 35-37 °C, 20 to 24 hours, unit assumed
Experimental: as §1, §2, §3

[6] = system: Micrococcus luteus ATCC 4698; details: BHI agar, 35-37 °C, 20 to 24 hours, unit assumed
Experimental: as §1, §2, §3

[7] = system: Klebsiella pneumoniae ATCC 8045; details: BHI agar, 35-37 °C, 20 to 24 hours, unit assumed
Experimental: as §1, §2, §3

Escherichia coli KNK 437 = details: BHI agar, 35-37 °C, 20 to 24 hours, unit assumed
Experimental: as §1, §2, §3

Escherichia coli H560 = details: BHI agar, 35-37 °C, 20 to 24 hours, unit assumed
Experimental: as §1, §2, §3

[8] = system: Streptococcus pyogenes PIU 2548; details: BHI agar, 35-37 °C, 20 to 24 hours, unit assumed
Experimental: as §1, §2, §3

Pseudomonas capacia 2961 = details: BHI agar, 35-37 °C, 20 to 24 hours, in µg/mL (unit assumed)
Experimental: as §1, §2, §3

[9] = system: Staphylococcus aureus A-5278; details: BHI agar, 35-37 °C, 20 to 24 hours, unit assumed
Experimental: as §1, §2, §3

[10] = system: Pseudomonas aeruginosa K799/61; details: BHI agar, 35-37 °C, 20 to 24 hours, unit assumed
Experimental: as §1, §2, §3

[11] = system: Pseudomonas aeruginosa BMH10; details: BHI agar, 35-37 °C, 20 to 24 hours, in µg/mL (unit assumed)
Experimental: as §1, §2, §3

[12] = system: Pseudomonas aeruginosa DPHD-5263; details: BHI agar, 35-37 °C, 20 to 24 hours, in µg/mL (unit assumed)
Experimental: as §1, §2, §3

[13] = system: Staphylococcus aureus CMX 642A; details: BHI agar, 35-37 °C, 20 to 24 hours, unit assumed
Experimental: as §1, §2, §3

Escherichia coli DC-2 = details: BHI agar, 35-37 °C, 20 to 24 hours, unit assumed
Experimental: as §1, §2, §3

[14] = system: Pseudomonas aeruginosa DPHD-2862; details: BHI agar, 35-37 °C, 20 to 24 hours, unit assumed
Experimental: as §1, §2, §3

[15] = system: Staphylococcus aureus CMX 553; details: BHI agar, 35-37 °C, 20 to 24 hours, unit assumed
Experimental: as §1, §2, §3

[16] = system: Staphylococcus epidermidis 3519; details: BHI agar, 35-37 °C, 20 to 24 hours, unit assumed
Experimental: as §1, §2, §3

[17] = system: Staphylococcus aureus NCTC10649M; details: BHI agar, 35-37 °C, 20 to 24 hours, unit assumed
Experimental: as §1, §2, §3

[18] = system: Staphylococcus aureus ATCC 6538P; details: BHI agar, 35-37 °C, 20 to 24 hours, unit assumed
Experimental: as §1, §2, §3

[19] = system: Streptococcus agalactiae CMX 508; details: BHI agar, 35-37 °C, 20 to 24 hours, unit assumed
Experimental: as §1, §2, §3

[20] = system: Providencia struartii CMX 640; details: BHI agar, 35-37 °C, 20 to 24 hours, unit assumed
Experimental: as §1, §2, §3

[21] = system: Streptococcus bovis A-5169; details: BHI agar, 35-37 °C, 20 to 24 hours, unit assumed
Experimental: as §1, §2, §3

[22] = system: Pseudomonas aeruginosa 5007; details: BHI agar, 35-37 °C, 20 to 24 hours, unit assumed
Experimental: as §1, §2, §3

Escherichia coli JUHL = details: BHI agar, 35-37 °C, 20 to 24 hours, in µg/mL (unit assumed)
Experimental: as §1, §2, §3

[23] = system: Pseudomonas aeruginosa K799/WT; details: BHI agar, 35-37 °C, 20 to 24 hours, unit assumed
Experimental: as §1, §2, §3

[24] = system: Staphylococcus aureus A5177; details: BHI agar, 35-37 °C, 20 to 24 hours, unit assumed
Experimental: as §1
(§4) An additional plate containing a compound having known susceptibility patterns for the organisms being tested and belonging to the same antibiotic class as the test compound was also prepared and incubated as a further control, as well as to provide test-to-test comparability.
as §3

[25] = system: Mycobacterium smegmatis ATCC 114; details: BHI agar, 35-37 °C, 20 to 24 hours, unit assumed
Experimental: as §1, §2, §3

[26] = system: Actinetobacter calcoaceticus CMX 669; details: BHI agar, 35-37 °C, 20 to 24 hours, unit assumed
Experimental: as §1, §4, §3

Row | Compound | MIC [1] | MIC [2] | MIC [3] | MIC (Candida albicans CCH 442) | MIC [4] | MIC [5] | MIC [7] | MIC (Escherichia coli KNK 437) | MIC (Escherichia coli H560) | MIC [8] | MIC (Pseudomonas capacia 2961) | MIC [9] | MIC [10] | MIC [11] | MIC [12] | MIC [13] | MIC [14] | MIC [16] | MIC [17] | MIC [18] | also measured
1 | CC[C@H]1OC(=O)[C@H](C)[C@@H](O[C@H]2C[C@@](C)(OC)[C@@H](O)[C@H](C)O2)[C@H](C)[C@@H](O[C@@H]2O[C@H](C)C[C@H](N(C)C)[C@H]2O)[C@](C)(O)C[C@@H](C)C(=O)[C@H](C)[C@@H](O)[C@]1(C)O [Ery. A, Erythromycin A, reference compound] | 0.05 µg/mL (≈ 0.0681 µM) | 0.05 µg/mL (≈ 0.0681 µM) | > 100 µg/mL | > 100 µg/mL | > 100 µg/mL | > 100 µg/mL | > 100 µg/mL | 100 µg/mL (≈ 136 µM) | 50 µg/mL (≈ 68.1 µM) | 3.1 µg/mL (≈ 4.22 µM) | > 100 | > 100 µg/mL | 1.56 µg/mL (≈ 2.13 µM) | > 100 | >100 | 0.39 µg/mL (≈ 0.531 µM) | > 100 µg/mL | 0.39 µg/mL (≈ 0.531 µM) | 0.39 µg/mL (≈ 0.531 µM) | 0.2 µg/mL (≈ 0.273 µM) | MIC (Escherichia coli SS): 0.78 µg/mL (≈ 1.06 µM); MIC [6]: 0.2 µg/mL (≈ 0.273 µM); MIC (Escherichia coli DC-2): > 100 µg/mL; MIC [15]: 0.39 µg/mL (≈ 0.531 µM); MIC [19]: 0.05 µg/mL (≈ 0.0681 µM); MIC [20]: > 100 µg/mL; MIC [21]: 0.02 µg/mL (≈ 0.0273 µM); MIC [22]: > 100 µg/mL; MIC (Escherichia coli JUHL): > 100; MIC [23]: 100 µg/mL (≈ 136 µM); MIC [24]: 3.1 µg/mL (≈ 4.22 µM)
2 | CC[C@H]1OC(=O)[C@H](C)[C@@H](O[C@H]2C[C@@](C)(OC)[C@@H](O)[C@H](C)O2)[C@H](C)[C@@H](O[C@@H]2O[C@H](C)C[C@H](N(C)C)[C@H]2O)[C@](C)(OCC(C)=O)C[C@@H](C)C(=O)[C@H](C)[C@@H](O)[C@]1(C)O [Example 9, Compound of Formula (X); X is =O. R is 2-oxopropyl] | 3.1 µg/mL | 3.1 µg/mL | > 100 µg/mL | > 100 µg/mL | > 100 µg/mL | > 100 µg/mL | > 100 µg/mL | > 100 µg/mL | > 100 µg/mL | 12.5 µg/mL | > 100 | > 100 µg/mL | 12.5 µg/mL | > 100 | > 100 | 3.1 µg/mL | > 100 µg/mL | 3.1 µg/mL | 3.1 µg/mL | 3.1 µg/mL | MIC [25]: 3.1 µg/mL; MIC [19]: 3.1 µg/mL; MIC [20]: > 100 µg/mL; MIC [21]: 3.1 µg/mL; MIC [22]: > 100 µg/mL; MIC (Escherichia coli JUHL): > 100; MIC [23]: > 100 µg/mL; MIC [26]: 50 µg/mL
3 | Compound of Formula (X): X is =N-OH, R is allyl [Example 1C] | 0.2 µg/mL | 0.1 µg/mL | > 100 µg/mL | > 100 µg/mL | > 100 µg/mL | > 100 µg/mL | > 100 µg/mL | > 100 µg/mL | 100 µg/mL | 3.1 µg/mL | > 100 | > 100 µg/mL | 6.2 µg/mL | > 100 | > 100 | 1.56 µg/mL | > 100 µg/mL | 0.39 µg/mL | 0.78 µg/mL | 0.78 µg/mL | MIC (Escherichia coli SS): 0.78 µg/mL; MIC [6]: 1.56 µg/mL; MIC (Escherichia coli DC-2): > 100 µg/mL; MIC [15]: 0.78 µg/mL; MIC [25]: 0.2 µg/mL; MIC [19]: 0.01 µg/mL; MIC [20]: > 100 µg/mL; MIC [21]: 0.01 µg/mL; MIC [22]: > 100 µg/mL; MIC (Escherichia coli JUHL): 100; MIC [23]: > 100 µg/mL; MIC [26]: 50 µg/mL
4 | Compound of Formula (XII): X is-=N-O-(1-isopropoxycyclohexyl), R is allyl, R^p is trimethylsilyl [Example 1B] | 0.2 µg/mL | 0.2 µg/mL | > 100 µg/mL | > 100 µg/mL | > 100 µg/mL | > 100 µg/mL | > 100 µg/mL | > 100 µg/mL | 100 µg/mL | 6.2 µg/mL | > 100 | > 100 µg/mL | 6.2 µg/mL | > 100 | > 100 | 1.56 µg/mL | > 100 µg/mL | 0.39 µg/mL | 3.1 µg/mL | 0.78 µg/mL | MIC (Escherichia coli SS): 3.1 µg/mL; MIC [6]: 3.1 µg/mL; MIC (Escherichia coli DC-2): > 100 µg/mL; MIC [15]: 1.56 µg/mL; MIC [19]: 0.1 µg/mL; MIC [20]: > 100 µg/mL; MIC [21]: 0.02 µg/mL; MIC [22]: > 100 µg/mL; MIC (Escherichia coli JUHL): > 100; MIC [23]: > 100 µg/mL; MIC [26]: 50 µg/mL
